Tests used:
[1] = test system: female balb/c mice; test: Oxazolone-induced inflammatory bowel disease model; format: in vivo; conditions: scored at 72 hours, control 2.00 ± 0.21
Protocol: The study of the activity of Compound I on the oxazolone-induced inflammatory bowel disease model (ulcerative Colitis and Crohn's disease model) was carried out by means of a standard procedure (Heller F., Fuss I. J., Nieuwenhuis E. E., Blumberg R. S., Strober W. Oxazolone colitis, a Th2 colitis model resembling ulcerative colitis, is mediated by IL-13-producing NK-T cells//Immunity. 2002. P. 629-638).
The study was carried out on female balb/c mice. A 3.5 F catheter was introduced into the large intestine to a depth of 3-4 cm. Then, 150 μl of 1% oxazolone solution in 50% ethanol was slowly introduced into the colon lumen, the catheter was slowly removed and the mouse was kept in a vertical position (upside down) for 60 seconds to avoid the introduced solution flowing-out. Experimental animals were returned to the cages and the animal was kept in the warm. Compound I was administered intragastrically, three times: 1 hour, 25 hours and 49 hours after the rectal administration of oxazolone. 72 hours later after the rectal administration of oxazolone, the macroscopic assessment of intestinal wall damage is carried out with the help of score scale: 0 points—no lesions, 1 point—hyperemia, no ulcers, 2 points—hyperemia and thickening of the intestinal wall, no ulcers, 3 points—one ulcer without thickening of the intestine wall, 4 points—2 or more of the site of ulceration or inflammation, 5 points—2 or more severe sites of ulcerations and inflammation, or one site of ulceration/inflammation affecting >1 cm in length of the intestine, 6-10 points—the lesion affects >2 cm in length of the intestine, the score increases by 1 point per each 1 cm that is damaged.
For all data, descriptive statistics is applied: the arithmetic mean (M) and the standard error of the mean (m) are counted up. The normality of distribution of the values obtained in the course of the experiment was checked with the aid of the Shapiro-Wilk test. […] Distinctions were determined at 5% at a level of confidence.

[2] = target: T1, NK3R (Homo sapiens, UniProt P29371); test: Effect on activity of tachykinin receptor type 3 (intracellular calcium, fluorescence); format: cell-based; conditions: CHO-K1 cells expressing NK3R, agonist [MePhe10]-NKB 1 nM, read-out: IC50, antagonist of tachykinin receptor type 3
T1 construct: expressed in transfected cells; host or cells: CHO-K1 cells
T1 sequence (P29371 1-465): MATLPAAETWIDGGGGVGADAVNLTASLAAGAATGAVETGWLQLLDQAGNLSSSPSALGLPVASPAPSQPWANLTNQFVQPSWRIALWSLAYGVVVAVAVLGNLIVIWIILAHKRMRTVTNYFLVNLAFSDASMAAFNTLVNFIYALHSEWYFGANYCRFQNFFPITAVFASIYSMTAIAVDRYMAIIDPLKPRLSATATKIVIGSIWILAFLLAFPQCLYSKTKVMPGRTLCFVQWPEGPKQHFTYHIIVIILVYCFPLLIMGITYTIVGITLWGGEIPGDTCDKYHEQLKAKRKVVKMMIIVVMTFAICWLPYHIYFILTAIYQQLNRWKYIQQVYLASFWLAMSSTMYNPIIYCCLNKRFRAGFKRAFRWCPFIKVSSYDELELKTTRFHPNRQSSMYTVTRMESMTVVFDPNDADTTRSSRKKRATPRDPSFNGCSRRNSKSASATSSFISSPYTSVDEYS
Protocol: Compound I was dissolved in DMSO to a concentration of 100 mM; then the stock solution was serially diluted with DMSO. The maximal start concentration of substance is 100 μM. The effect was determined at 5 concentrations of test compounds, each concentration was investigated twice. CHO-K1 cells expressing NK3R were used in the experiment, said cells after the preincubation with an agonist [MePhe10]-NKB (1 nM) were incubated with the test compound. The activity of receptors was determined by the intracellular calcium concentration using fluorescence spectroscopy (Br J Pharmacol. 1999 October; 128(3):627-36).

[3] = test system: guinea pigs of Agouti line; test: Citrate cough model in guinea pigs, inhalation administration; format: in vivo; conditions: 0.25 mg/kg by inhalation 15 minutes prior to citric acid
[4] = test system: balb/c male mice; test: Acute pain response model, administration of mustard oil in mice; format: in vivo
Protocol: The study of the activity of the compound on the acute pain response model was conducted using a standard procedure (Laird M. A., Martinez-Caro L., Garcia-Nicas E., Cervero F. A new model of visceral pain and referred hyperalgesia in the mouse//J. Pain 92 (2001). P. 335-342).
The study was carried out on balb/c male mice, the individual weight of which deviates from the mean value within the sex of no more than ±10%. First, the mice were lightly anesthetized (after 24 hours of fasting). Then 1% solution of mustard oil in physiological solution was introduced to the animals at 4 cm in depth with the help of catheter 3.5 F. The solvent was introduced to the healthy control. 5 minutes after the introduction of the mustard oil, the presence of pain in the animal (a number of abdominal lickings, abdominal wall abductions, lower abdominal deformity to the floor, abdominal distension) was evaluated during the first 20 minutes. Compound I was administered once intragastrically 1 hour before the administration of mustard oil. The obtained data were checked using the Grubb's test for the presence of the largest or smallest abnormal observation (ejection) in the sample. Values determined “to be eliminated” in this test were not used for further assay. For all data, descriptive statistics was used: a mean value (M) and standard error of the mean value (m) were counted up. The normality of distribution of the values obtained in the course of the experiment was checked with the aid of the Kolmogorov-Smirnov test. In the case of normal distribution, Student's t-test (t-test) was used to evaluate the inter-group distinctions. In the case of the distribution that is other than the normal one the Kruskall-Wallis test (with Dann's post hoc test) was used for the comparison of several groups. Distinctions were determined at 5% at a level of confidence.

[5] = target: human recombinant μ-opioid receptor (Homo sapiens, UniProt P35372); test: μ-opioid receptor radioligand displacement ([3H]DAMGO); format: binding
Chain of human recombinant μ-opioid receptor (P35372 whole entry): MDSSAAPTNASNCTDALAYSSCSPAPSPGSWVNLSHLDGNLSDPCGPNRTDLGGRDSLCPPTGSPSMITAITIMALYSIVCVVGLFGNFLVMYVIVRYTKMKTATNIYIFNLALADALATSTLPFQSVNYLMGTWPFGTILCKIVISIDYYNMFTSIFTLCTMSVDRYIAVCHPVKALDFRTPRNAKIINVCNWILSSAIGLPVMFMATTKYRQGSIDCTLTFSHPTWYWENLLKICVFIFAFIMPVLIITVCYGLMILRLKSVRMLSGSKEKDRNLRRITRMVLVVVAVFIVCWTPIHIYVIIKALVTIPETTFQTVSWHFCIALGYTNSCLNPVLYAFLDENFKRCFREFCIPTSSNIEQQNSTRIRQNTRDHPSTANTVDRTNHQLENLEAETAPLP

## O=C(Cc1ccc(O)cc1)N[C@@H](Cc1ccccc1)C(=O)NCCc1ccccc1 [Compound I, 2-phenylethylamide N-(p-hydroxyphenylacetyl)phenylalanine]
[1]; 10 mg/kg, 1, 25 and 49 hours after oxazolone
  The degree of colon wall damage: 2.20 ± 0.96 points
[1]; 20 mg/kg intragastrically 1, 25 and 49 hours after oxazolone
  The degree of colon wall damage: 0.00 ± 0.00& points
[2]
  IC50: 15 µM
[3]
  Suppression of cough (% from the control of pathology) in the chamber: 39.1%
[3]; control 48.8 ± 4
  A number of cough attacks during the inhalation for 10 minutes: 29.7 ± 2.7*&
[4]; 15 mg/kg once intragastrically 1 hour prior to mustard oil, control 10.4 ± 1.59, intact 2.2 ± 0.33
  Number of pain sensations, 0-20 min: 2.56 ± 0.78 &
[4]; 1.5 once intragastrically 1 hour prior to mustard oil, control 10.4 ± 1.59
  Number of pain sensations, 0-20 min: 14.8 ± 3.01
[4]; 3 once intragastrically 1 hour prior to mustard oil, control 10.4 ± 1.59
  Number of pain sensations, 0-20 min: 8.56 ± 0.94
[4]; 7.5 once intragastrically 1 hour prior to mustard oil, control 10.4 ± 1.59
  Number of pain sensations, 0-20 min: 15.1 ± 1.7
[5]
  IC50: 4.1 µM
